Measurements taken from article PMC6848146, “Binding and structural analyses of potent inhibitors of the human Ca^2+/calmodulin dependent protein kinase kinase 2 (CAMKK2) identified from a collection of commercially-available kinase inhibitors” (Scientific Reports, 2019).
Like-named read-outs stand apart in the source and are kept apart here. Marks after values point to notes of the source that are not given here. Values belong to the molecule of their own block, whether it stands above or below them.

What was measured:
[1] = biological target: T1, CAMKK2-KD (kinase domain of CAMKK2) (Homo sapiens, UniProt Q96RR4); experiment: DSF thermal-shift screen, 384-well format; type: binding; conditions: 10 µM compound, 1 µM kinase, 0.1% DMSO, single measurement
T1 construct: the protein kinase domain (amino acids 161–449); hexahistidine (6xHis), TEV-cleavable; made in house
Procedure: (§1) We employed a thermal-shift assay (Differential Scanning Fluorimetry, DSF)[19] to identify compounds that can bind to the kinase domain of CAMKK2 (CAMKK2-KD). Protein thermal denaturation curves (Fig. 1A,B) were used to calculate the denaturation midpoint temperature (Tm) for the kinase domain of CAMKK2 in the presence of ligands or vehicle only (DMSO). […] DSF screens were performed on purified CAMKK2-KD using a library of commercially available, chemically diverse, ATP-competitive, kinase inhibitors.
DSF experiments in 384-well format followed a protocol previously established at the SGC-UNICAMP and described elsewhere.
The compounds, previously solubilized in DMSO, were used at 10 µM final concentration and 0.1% DMSO. Plates were sealed using optically clear films and transferred to a QuantStudio 6 qPCR instrument (Applied Biosystems). […] Protein in 0.1% DMSO was used as a reference.
(§2) For both formats, experiments were performed in singlets.

CAMKK2-KD = CAMKK2-KD (Homo sapiens, UniProt Q96RR4); experiment: Isothermal titration calorimetry (reverse titration); conditions: 20 °C
Procedure: All ITC experiments described below were performed twice.
Measurements were made using a MicroCal AutoITC200 (Malvern, United Kingdom). […] Small molecule inhibitors were diluted in dialysis buffer. All ITC experiments were performed using a “reverse titration” setup in which the protein (in the syringe) was titrated into the cell containing the inhibitor. Two independent ITC measurements were performed for each compound, data for individual runs were integrated separately to obtain single isotherms, which were plotted and analyzed using Sedphat[37]. […] All measurements were made at 20 °C with mixing (1,000 rpm stirring), and used 1.5 µL injections and 180 s between each injection. NITPIC, SEDPHAT and GUSSI[37] were used to analyze and generate figures for ITC data.

CAMKK1-FL = biological target: T2, CAMKK1-FL (Homo sapiens, UniProt Q8N5S9); experiment: Radiometric enzymatic assay (Eurofins Discovery), Ca2+/Calmodulin present; type: biochemical; conditions: 200 µM ATP; single measurement
T2 construct: purchased Eurofins Discovery (MO, USA), assay service
Procedure: All compounds employed in this study were initially developed to target other human protein kinases, and some are known to be quite promiscuous[18],[21].
Reaction conditions for assays using CAMKK1-FL were: 8 mM MOPS pH 7.0, 0.2 mM EDTA, 0.33 mg/mL MBP (myelin basic protein), 0.5 mM calcium chloride, 0.016 mg/ml calmodulin, 10 mM magnesium acetate and [gamma-^33P-ATP] (200 µM). […] The reactions were initiated by the addition of a Mg^2+-ATP mixture. After incubation for 40 minutes at room temperature, the reaction was stopped by the addition of phosphoric acid to a final concentration of 0.5%. […] Following subtraction of the average inhibitor control well counts, results were expressed as a percentage of the mean kinase activity in the positive control sample.

CAMKK2-FL = biological target: T3, CAMKK2-FL (Homo sapiens, UniProt Q96RR4); experiment: as above; type: biochemical; conditions: for fold more active towards CAMKK2-FL than CAMKK1-FL: from IC50 values of Table 1; for IC50: 90 µM ATP, single measurement
T3 construct: an enzymatic assay using the full-length protein (CAMKK2-FL); purchased Eurofins Discovery (MO, USA), assay service

[2] = biological target: T1, CAMKK2-KD (kinase domain of CAMKK2); experiment: DSF thermal-shift screen, 96-well format; type: binding; conditions: for ΔTm at 12 µM: read-out: ΔTm
Procedure: as §1
SYPRO Orange dye (Invitrogen) was used in 5X as final concentration.
Plates were sealed using optically clear films and transferred to an Mx3005p RT-PCR machine (Agilent).
as §2

CAMKK1 = system: CAMKK1; design: method as in Anastassiadis et al. (2011); conditions: 0.5 µM compound; ref Anastassiadis et al. (2011); cited from earlier work
CAMKK2 = system: CAMKK2; design: method as in Anastassiadis et al. (2011); conditions: 0.5 µM compound; ref Anastassiadis et al. (2011); cited from earlier work
[3] = system: six other kinases (panel of 92 protein kinases); design: method as in PMID 17850214; conditions: screened against a panel of only 92 protein kinases; cited from earlier work
[4] = individual ITC experiment, run 1
[5] = individual ITC experiment, run 2
[6] = 96-well format, 12 µM compound, 2 µM kinase, 2.5% DMSO, single measurement

T1 sequence (Q96RR4 161-449): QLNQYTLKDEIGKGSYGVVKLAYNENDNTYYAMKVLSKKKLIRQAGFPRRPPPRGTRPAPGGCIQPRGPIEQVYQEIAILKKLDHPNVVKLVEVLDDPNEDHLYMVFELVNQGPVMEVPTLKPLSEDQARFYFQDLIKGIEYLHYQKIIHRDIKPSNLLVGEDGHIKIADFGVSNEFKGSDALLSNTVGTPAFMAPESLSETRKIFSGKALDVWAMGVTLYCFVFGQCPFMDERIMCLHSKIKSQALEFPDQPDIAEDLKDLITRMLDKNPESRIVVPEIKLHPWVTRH
Sequence of CAMKK2-KD (Q96RR4 161-449): as above

Molecule: COc1cc(N2CCC(N(C)C)CC2)ccc1Nc1ncc(Cl)c(Nc2ccccc2P(C)(C)=O)n1 [ALK-IN-1]
ΔTm [1]: 11.2^d °C
ΔH Run 1 (CAMKK2-KD; [4]): -43.0 kJ/mol
ΔG Run 2 (CAMKK2-KD; [5]): -45.7 kJ/mol
ΔH Run 2 (CAMKK2-KD; [5]): -40.7 kJ/mol
Kd (CAMKK2-KD; read-out: ITC KD, serial integrations of two independent experiments): 2 nM
Kd (CAMKK2-KD; read-out: KD Run 1, individual ITC experiment, run 1): 2.5 nM
Kd (CAMKK2-KD; read-out: KD Run 2, individual ITC experiment, run 2): 2 nM
IC50 (CAMKK1-FL): 182 nM
fold more active towards CAMKK2-FL than CAMKK1-FL (CAMKK2-FL): ~ 10 fold

Molecule: Nc1nc(Nc2ccc(S(N)(=O)=O)cc2)nn1C(=O)c1c(F)cccc1F [Aurora/Cdk Inhibitor]
ΔTm [2, 6]: 4.3 °C

Molecule: Cn1cc(C2=C(c3cn(CCCSC(=N)N)c4ccccc34)C(=O)NC2=O)c2ccccc21 [BIM IX]
ΔTm [2, 6]: 8.1 °C

Molecule: COc1cc2c(Nc3cc(Cl)c(OC)c(Cl)c3)c(C#N)cnc2cc1OCCCN1CCN(C)CC1 [Bosutinib isomer]
ΔTm [2, 6]: 4.1 °C

Molecule: COCCOc1ccc2c(c1)ncn2-c1ccc2cccc(N3CCC(N)CC3)c2n1 [CP-673451]
ΔTm at 10 µM [1]: 10 °C
Kd (CAMKK2-KD; ITC KD, serial integrations of two independent experiments): 2 nM
Kd (CAMKK2-KD; KD Run 1, individual ITC experiment, run 1): 2.6 nM
Kd (CAMKK2-KD; KD Run 2, individual ITC experiment, run 2): 1.5 nM
ΔG Run 1 (CAMKK2-KD; [4]): -48.2 kJ/mol
ΔH Run 1 (CAMKK2-KD; [4]): -55.2 kJ/mol
ΔG Run 2 (CAMKK2-KD; [5]): -49.5 kJ/mol
ΔH Run 2 (CAMKK2-KD; [5]): -54.5 kJ/mol
IC50 (CAMKK1-FL): 122 nM
IC50 (CAMKK2-FL): 19 nM
fold more active towards CAMKK2-FL than CAMKK1-FL (CAMKK2-FL): ~ 10 fold

Molecule: CC1(COc2ccc3c(c2)ncn3-c2ccc3cccc(N4CCC(N)CC4)c3n2)COC1 [Crenolanib (CP-868596), Crenolanib]
ΔTm at 10 µM [1]: 10.6 °C
IC50 (CAMKK1-FL): 82 nM
IC50 (CAMKK2-FL): 21 nM

Molecule: COc1cc2c(Oc3ccc(NC(=O)C4(C(=O)Nc5ccc(F)cc5)CC4)cc3F)ccnc2cc1OCCCN1CCOCC1 [Foretinib]
ΔTm at 10 µM [1]: 6.3 °C
IC50 (CAMKK2-FL): 1300 nM

Molecule: O=C(O)c1ccc(-c2c[nH]c3ncc(-c4ccccc4)cc23)cc1C1CCCC1 [GSK650394]
ΔTm at 10 µM [1]: 16.2 °C
ΔG Run 1 (CAMKK2-KD; [4]): -46.2 kJ/mol
ΔH Run 1 (CAMKK2-KD; [4]): -87.5 kJ/mol
ΔG Run 2 (CAMKK2-KD; [5]): -45.8 kJ/mol
ΔH Run 2 (CAMKK2-KD; [5]): -79.1 kJ/mol

Molecule: CN(c1ccc(NC(=O)Nc2ccc(OC(F)(F)F)cc2)cc1)c1ccnc(Nc2cccc(S(N)(=O)=O)c2)n1 [GW806742X]
ΔTm at 12 µM [2]: 5.8 °C

Molecule: O=C(c1ccc(Nc2nccc(-c3cc4ccccc4s3)n2)cc1)N1CCC(N2CCCC2)CC1 [IKK 16]
ΔTm [2, 6]: 6.8 °C

Molecule: O=C1c2ccccc2-c2n[nH]c3cccc1c23 [JNK Inhibitor II]
ΔTm [2, 6]: 6.8 °C

Molecule: COC(=O)[C@@]1(O)C[C@H]2O[C@]1(C)n1c3ccccc3c3c4c(c5c6ccccc6n2c5c31)C(=O)NC4 [K252a]
ΔTm [2, 6]: 18.3^e °C
IC50 (CAMKK1-FL): 51 nM
IC50 (CAMKK2-FL): 50 nM

Molecule: CC(C)n1cnc2c(Nc3cccc(Cl)c3)nc(NCCO)nc21 [NG 52 (Compound 52)]
ΔTm [2, 6]: 6.8 °C

Molecule: O=C(O)c1ccc2c3c1cccc3c(=O)n1c3ccccc3nc21 [STO-609]
IC50 [3]: < 250 nM

Molecule: CN[C@@H]1C[C@H]2O[C@@](C)([C@@H]1OC)n1c3ccccc3c3c4c(c5c6ccccc6n2c5c31)C(=O)NC4 [Staurosporine]
% Activity Remaining at 0.5 µM, CAMKK1 (CAMKK1): -3.13%
% Activity Remaining at 0.5 µM, CAMKK2 (CAMKK2): 0.24%

Molecule: Cn1cc(/C=C2\C(=O)Nc3ccc(S(N)(=O)=O)cc32)c2ccccc21 [Syk Inhibitor]
ΔTm [2, 6]: 9.4 °C

Molecule: COc1cc(N2CCC(N3CCN(C)CC3)CC2)ccc1Nc1ncc(Cl)c(Nc2ccccc2S(=O)(=O)C(C)C)n1 [TAE684]
ΔTm at 12 µM [2, 6]: 16.3 °C

Molecule: JAK Inhibitor I
ΔTm [2, 6]: 4.7 °C

Further lines, with some results ahead:

ΔTm at 12 µM [2, 6]: 9.7 °C
IC50 (CAMKK1-FL): 188 nM
IC50 (CAMKK2-FL): 159 nM
Molecule: CC(C)[C@H](CO)Nc1nc(Nc2cc(N)cc(Cl)c2)c2ncn(C(C)C)c2n1 [Aminopurvalanol]
% Activity Remaining at 0.5 µM, CAMKK1 (CAMKK1): 86.8%
% Activity Remaining at 0.5 µM, CAMKK2 (CAMKK2): 33.3%

ΔTm at 10 µM [1]: 6 °C
IC50 (CAMKK1-FL): 87 nM
IC50 (CAMKK2-FL): 44 nM
Molecule: CC[C@@H]1C(=O)N(C)c2cnc(Nc3ccc(C(=O)N[C@H]4CC[C@H](N5CCN(CC6CC6)CC5)CC4)cc3OC)nc2N1C(C)C [BI 6727, Volasertib]

ΔTm [2, 6]: 7.2^e °C
IC50 (CAMKK1-FL): 2590 nM
Molecule: CN(C)CCCn1cc(C2=C(c3c[nH]c4ccccc34)C(=O)NC2=O)c2ccccc21 [BIM I]

ΔTm [2, 6]: 4.4 °C
Molecule: O=C1NCCCc2c1oc1ccc(O)cc21 [CID 755673]

ΔTm at 12 µM [2, 6]: 6.9 °C
Molecule: CN1CCN(c2ccc3nc(-c4c(N)c5c(F)cccc5[nH]c4=O)[nH]c3c2)CC1 [Dovitinib]

ΔTm [2, 6]: 7.5 °C
Molecule: c1ccc(-c2cnc(Nc3ccc(OCCN4CCCC4)cc3)s2)cc1 [Flt3 Inhibitor III]

ΔTm at 12 µM [2, 6]: 4.9 °C
Molecule: C[C@@H](Oc1cc(-n2cnc3ccc(OC[C@@H](O)CO)cc32)sc1C(N)=O)c1ccccc1Cl [GSK978744A]

ΔTm [2, 6]: 5.4 °C
Molecule: O=C1Nc2ccccc2/C1=C1/Nc2ccccc2/C1=N\O [Indirubin-3monoxime]

ΔTm at 12 µM [2, 6]: 4.6 °C
Molecule: c1nc2nc(Nc3ccc(N4CCOCC4)cc3)nc(NC3CCCCC3)c2[nH]1 [Reversine]

ΔTm at 12 µM [2, 6]: 5 °C
Molecule: COc1ccc2c(c1)/C(=C/c1cnc[nH]1)C(=O)N2 [SU9516]

ΔTm [1]: 7.5^d °C
IC50 (CAMKK1-FL): 395 nM
Molecule: CNC(=O)c1ccccc1Nc1nc(Nc2ccc(N3CCOCC3)cc2OC)ncc1Cl [TAE226]
